Read-outs that look alike come from different tables or passages of the source.
Experiments:
[1] = MTT proliferation / drug combination assay, MDCKII-ABCB1; conditions: dog, MDCKII-ABCB1 cells
Method: (§1) MTT proliferation assay was performed as described previously. Cells were seeded on a 96-well culture plate at densities (in units of cells/well) of 1.3 × 10^4 for MDCKII-par, MDCKII-ABCB1, MDCKII-ABCG2, and MDCKII-ABCC1; 1.2 × 10^4 for A431-par, A431-ABCB1, A431-ABCG2 and A431-ABCC1; 1.2 × 10^4 for NCI-H1299; 2.0 × 10^4 for Caco-2; 5.0 × 10^4 for LS174T; and 6.0 × 10^4 for HepG2-CYP3A4 and HepG2-EV. After seeding, the cells were cultured for 24 h, then the media was removed and the cells were treated with serial dilutions of a drug or drug combination for 48 h. Vehicles containing media and 40% DMSO in media served as 100% and 0% viability controls, respectively. Upon completion of the 48 h period, the cells were washed once with 1× PBS, the media was replaced with an MTT solution in Opti-MEM (1 mg/mL), and the cells were incubated under standard conditions for 60 min. MTT solution was carefully removed and the resulting formazan crystals were immediately solubilized in DMSO. The cells were then shaken gently for 10 min, after which absorbance of their lysate was measured at 570 nm and 690 nm using a microplate reader (Infinite M200, Tecan, Salzburg, Austria); background values obtained at 690 nm were subtracted from the measurements obtained at 570 nm. This method was used to assess the effect of ABC transporters on sensitivity to ensartinib, in drug combination assays, and to identify drug concentrations appropriate for use in induction studies.
(§2) Experiments focusing on the modulation of ABC transporter-mediated resistance were performed as described previously. The parent MDCKII and HL60 cells and their ABCB1-, ABCG2-, and ABCC1-overexpressing counterparts were seeded at the densities specified above onto 96-well culture plates and cultured for 24 h. The medium was subsequently replaced with serial dilutions of ensartinib alone or with various concentrations of a model MDR-susceptible cytostatic agent (daunorubicin or mitoxantrone) with or without 10 µM ensartinib. After 48 h incubation, the cells’ viability was determined as described above. In addition to performing IC50-shift analyses, the viability measurements were converted to FA (fraction of cells affected) values and the effects of drug combinations were quantified using the Chou-Talalay combination index (CI) method as implemented in CompuSyn 3.0.1 (ComboSyn Inc., Paramus, NJ, USA). The effects of concomitantly administered drugs were classified as synergistic (CI < 0.9), additive (0.9 < CI < 1.1), or antagonistic (CI > 1.1) based on the computed CI values.

MDCKII-ABCB1 cells = test: as above; conditions: MDCKII-ABCB1
Method: as §1, §2

HepG2-CYP3A4 cells = test: Docetaxel combination assay (MTT), HepG2-CYP3A4; format: cell-based, human; conditions: 1 µM docetaxel
Method: MTT proliferation assay was performed as described previously.
Cell viability was measured after a 48 h incubation using the MTT method as described above. […] Sensitization effects of < 0%, 0%, and >0% indicate antagonism, additivity, and synergism, respectively.

ABCB1 = biological target: T1, ABCB1 (Homo sapiens, UniProt P08183); test: MDCKII monolayer transport assay, MDCKII-ABCB1; format: in vitro ADME; conditions: dog
T1 construct: expressed in transfected cells; host or cells: MDCKII-ABCB1 (from Dr. Alfred Schinkel, The Netherlands Cancer Institute)
T1 sequence (P08183 whole entry): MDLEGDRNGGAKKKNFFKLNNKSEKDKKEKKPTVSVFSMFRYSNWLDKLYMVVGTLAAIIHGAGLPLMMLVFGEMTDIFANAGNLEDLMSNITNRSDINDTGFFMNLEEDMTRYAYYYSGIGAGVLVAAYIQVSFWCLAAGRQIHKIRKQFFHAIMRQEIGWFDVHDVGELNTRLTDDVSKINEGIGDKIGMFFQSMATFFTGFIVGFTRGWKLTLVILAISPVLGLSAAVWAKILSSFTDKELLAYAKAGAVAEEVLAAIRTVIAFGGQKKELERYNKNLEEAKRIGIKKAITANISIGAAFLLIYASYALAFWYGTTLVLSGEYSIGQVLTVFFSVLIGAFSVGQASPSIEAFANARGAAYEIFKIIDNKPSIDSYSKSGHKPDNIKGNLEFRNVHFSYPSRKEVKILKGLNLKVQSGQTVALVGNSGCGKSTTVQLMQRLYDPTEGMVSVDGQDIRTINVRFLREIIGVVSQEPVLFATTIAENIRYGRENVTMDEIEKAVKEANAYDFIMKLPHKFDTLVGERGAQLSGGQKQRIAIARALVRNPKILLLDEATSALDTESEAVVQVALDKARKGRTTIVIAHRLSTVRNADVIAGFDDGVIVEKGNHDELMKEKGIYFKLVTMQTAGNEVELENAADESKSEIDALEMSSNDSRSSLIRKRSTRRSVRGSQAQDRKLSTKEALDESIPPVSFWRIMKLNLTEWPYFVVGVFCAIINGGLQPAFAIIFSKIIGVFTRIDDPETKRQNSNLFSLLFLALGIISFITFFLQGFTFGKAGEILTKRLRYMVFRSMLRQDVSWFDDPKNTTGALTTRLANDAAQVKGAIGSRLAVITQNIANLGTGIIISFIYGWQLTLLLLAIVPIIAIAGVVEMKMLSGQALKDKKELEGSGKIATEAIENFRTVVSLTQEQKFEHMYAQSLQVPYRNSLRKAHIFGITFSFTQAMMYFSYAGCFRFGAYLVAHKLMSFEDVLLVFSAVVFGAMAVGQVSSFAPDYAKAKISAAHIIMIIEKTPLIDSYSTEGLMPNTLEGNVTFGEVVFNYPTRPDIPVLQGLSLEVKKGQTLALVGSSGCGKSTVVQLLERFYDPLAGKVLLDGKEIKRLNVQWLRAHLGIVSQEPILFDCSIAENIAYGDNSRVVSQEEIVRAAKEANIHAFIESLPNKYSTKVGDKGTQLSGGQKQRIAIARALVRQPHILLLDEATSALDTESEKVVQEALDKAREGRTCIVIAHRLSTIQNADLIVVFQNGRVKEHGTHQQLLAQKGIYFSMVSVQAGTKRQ
Method: (§3) Transport assays were performed on microporous polycarbonate membrane filters (3 µm pore size, 24 mm diameter, Transwell 3414; Costar, Corning, NY, USA) using MDCKII parental as well as ABCB1-, ABCG2-, and ABCC1-overexpressing MDCKII cells. The cells were seeded at a density of 1.5 × 10^6 cells per insert and cultured to full confluence for 7 days with media exchanges on the second and fourth days. Before the start of the transport experiments, inserts were washed with 1 × PBS on both the apical and basal sides. The cells were then preincubated in Opti-MEM with or without model inhibitors (1 µM LY335979, 1 µM Ko143, or 25 µM MK-571). […] Ensartinib levels in samples were measured by UHPLC-MS/MS (see below). […]
(§4) Samples from the monolayer transport assays (10 µL) were mixed with 100 µL of acetonitrile and 100 µL of methanol, vortexed for 15 min, and centrifuged at 14,500 rpm for 3 min. […] The MS source parameters were set to the following: drying gas, 320 °C, flow rate 10 l/min; sheath gas, 400 °C at 12 l/min; nebulizer pressure 25 psi; capillary voltage 4000 V; nozzle voltage 0 V. Transitions of [M+H]^+ ions were detected using a dwell time of 150 ms, a cell acceleration of 4 V, and fragmentor voltages of 137 V for 547→357, 257 and 120 transitions (corresponding to collision energies of 16, 32, and 56 V).

ABCC1 = biological target: T2, ABCC1 (Homo sapiens, UniProt P33527); test: MDCKII monolayer transport assay, MDCKII-ABCC1; format: in vitro ADME; conditions: dog, 1 µM ensartinib, read-out: transport ratio (r), BA/AB
T2 construct: expressed in transfected cells; host or cells: MDCKII-ABCC1 (from Dr. Alfred Schinkel, The Netherlands Cancer Institute)
T2 sequence (P33527 whole entry): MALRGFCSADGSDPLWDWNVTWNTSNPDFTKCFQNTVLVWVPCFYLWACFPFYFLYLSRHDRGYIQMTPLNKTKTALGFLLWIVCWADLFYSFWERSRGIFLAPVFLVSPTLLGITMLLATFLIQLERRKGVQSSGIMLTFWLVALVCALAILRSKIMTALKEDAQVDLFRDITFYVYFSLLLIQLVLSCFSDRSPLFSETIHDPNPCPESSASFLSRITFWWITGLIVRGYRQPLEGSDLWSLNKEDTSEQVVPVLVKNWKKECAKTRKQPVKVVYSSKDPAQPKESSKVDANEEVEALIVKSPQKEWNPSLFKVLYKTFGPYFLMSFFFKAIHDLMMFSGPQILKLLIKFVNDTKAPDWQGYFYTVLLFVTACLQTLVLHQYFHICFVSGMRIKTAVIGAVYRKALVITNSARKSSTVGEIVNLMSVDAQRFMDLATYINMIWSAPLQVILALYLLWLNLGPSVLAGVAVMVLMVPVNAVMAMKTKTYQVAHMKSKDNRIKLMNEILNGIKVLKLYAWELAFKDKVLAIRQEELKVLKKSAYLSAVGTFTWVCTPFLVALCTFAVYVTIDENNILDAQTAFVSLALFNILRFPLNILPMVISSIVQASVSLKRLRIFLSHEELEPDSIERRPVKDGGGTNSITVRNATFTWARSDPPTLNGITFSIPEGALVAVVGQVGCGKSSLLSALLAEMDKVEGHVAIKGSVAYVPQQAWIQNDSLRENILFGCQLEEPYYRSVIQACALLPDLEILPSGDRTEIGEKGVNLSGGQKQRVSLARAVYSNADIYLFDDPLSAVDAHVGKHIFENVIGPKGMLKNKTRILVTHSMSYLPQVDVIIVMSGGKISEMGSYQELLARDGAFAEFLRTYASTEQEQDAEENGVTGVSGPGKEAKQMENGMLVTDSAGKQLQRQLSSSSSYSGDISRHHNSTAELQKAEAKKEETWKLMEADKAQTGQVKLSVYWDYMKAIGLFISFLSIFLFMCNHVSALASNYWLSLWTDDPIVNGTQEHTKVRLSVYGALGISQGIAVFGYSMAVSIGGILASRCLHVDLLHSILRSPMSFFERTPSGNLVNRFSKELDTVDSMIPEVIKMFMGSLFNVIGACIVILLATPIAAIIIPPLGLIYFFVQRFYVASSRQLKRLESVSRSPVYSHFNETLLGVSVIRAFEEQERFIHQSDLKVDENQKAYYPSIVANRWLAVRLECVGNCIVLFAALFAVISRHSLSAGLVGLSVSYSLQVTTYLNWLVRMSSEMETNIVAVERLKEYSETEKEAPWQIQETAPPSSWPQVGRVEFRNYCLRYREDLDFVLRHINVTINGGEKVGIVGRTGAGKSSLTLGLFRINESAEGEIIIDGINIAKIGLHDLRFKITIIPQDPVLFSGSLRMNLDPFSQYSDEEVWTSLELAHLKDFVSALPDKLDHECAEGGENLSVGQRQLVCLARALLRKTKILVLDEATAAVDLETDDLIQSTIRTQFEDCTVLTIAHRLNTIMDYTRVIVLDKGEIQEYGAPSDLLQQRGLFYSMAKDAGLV
Method: as §3, §4

[2] = parameters: method as in doi:10.1200/JCO.2018.36.15_suppl.e21122; conditions: in vivo pharmacokinetic studies in humans (patients); cited from earlier work

- efflux ratio at 4 h, 1 µM (ABCB1; MDCK-MDR1, 1 µM ensartinib, read-out: transport ratio (r), BA/AB): 15.6
- efflux ratio at 4 h, 1 µM (ABCB1; MDCK-MDR1, with LY335979, 1 µM ensartinib + 1 µM LY335979, read-out: transport ratio (r), BA/AB, with ABCB1 inhibitor): 1.05
- efflux ratio at 4 h, 1 µM (ABCC1): 1.29
Compound: C[C@@H]1CN(C(=O)c2ccc(NC(=O)c3cc(O[C@H](C)c4c(Cl)ccc(F)c4Cl)c(N)nn3)cc2)C[C@H](C)N1 [ensartinib, Ensartinib]
- IC50 at 48 h [1]: 23.9 µM
- combination effect (Chou-Talalay combination index) (MDCKII-ABCB1 cells; 10 µM ensartinib with daunorubicin): synergistic (synergistic (CI < 0.9))
- RR (reversal ratio) (MDCKII-ABCB1 cells; daunorubicin, IC50 single drug / IC50 combined with 10 µM ensartinib): 11.2
- docetaxel sensitization in CYP3A4-overexpressing cells (HepG2-CYP3A4 cells; 25 µM ensartinib (but not 15 µM), 48 h MTT): comparable to that induced by ketoconazole
- sensitization effect of combination with docetaxel (HepG2-CYP3A4 cells; HepG2-CYP3A4, <0% antagonism, =0% additivity, >0% synergism): synergistic
- Cmax [2]: 1000 nM
